Holding throughout (assay): DTP human tumour cell line panel, 48 h
For assay [1], the system named is BT-549.
The subject of assay [2] is MCF7.
Assay [3] has as its system HCC 2998.
In assay [4] the test system is COLO 205.
The subject of assay [5] is NCI-H226.
Assay [6] deals with SK-MEL-2.
For assay [7], the system named is UACC-257.
Assay [8] concerns A549.
Assay [9] deals with HCT-116.
Assay [10] deals with MDA-MB-231.
Assay [11] has as its system MDA-MB-435.
The test system of assay [12] is PC-3.
For assay [13], the system named is OVCAR-5.
Assay [14] relates to SF-539.
Assay [15] has as its system M14.
Assay [16] concerns NCI-H23.
For assay [17], the system named is SNB-75.
Assay [18] relates to CAKI-1.
For assay [19], the system named is NCI-H460.

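Interpolation was linear, between the two tested concentrations surrounding the appropriate level; five concentrations were tested over 48 hours in 96-well plates. Abbreviation: GI50, concentration required for 50% inhibition of growth.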 Calls of active or inactive are those of the source. Cut-off read from the data, not from the text of the source: active = GI50 up to about 1.1 µM and inactive = higher. A value given as a limit tells only on which side of the number the result lay.

Consider `CC(C)(Oc1ccc(-c2cccc3ccccc23)cc1)C(=O)O`, for which the GI50 was > 100 µM (inactive) in [1]; > 100 µM (inactive) in assay [2]; > 100 µM (inactive) in assay [3]; 71 µM (inactive) in assay [4]; > 100 µM (inactive) in assay [5]; > 100 µM (inactive) in [6]. In addition, the GI50 is > 100 µM (inactive) in assay [7]; 59.6 µM (inactive) in assay [8]; > 100 µM (inactive) in assay [9]; > 100 µM (inactive) in assay [10]; > 100 µM (inactive) in assay [11]; > 100 µM (inactive) in assay [12]. For the same compound, the GI50 in assay [13], in [14], in assay [15], in assay [16], in assay [17] and in [18] was > 100 µM (inactive) each time. The GI50 in assay [19] is > 100 µM (inactive).

With `O=C1OC(C2Cc3cc4c(cc3C2=O)CCC4)c2ccccc21` (stereo not given), the GI50 in assay [1] is > 10 µM (inactive); in assay [2], 41.5 µM (inactive); in [3] it was 21.2 µM (inactive); in [4], 33.9 µM (inactive); in [5] it was 20.6 µM (inactive); in assay [6], 65 µM (inactive). The GI50 is > 100 µM (inactive) in assay [7]; 44.7 µM (inactive) in assay [8]; 36.6 µM (inactive) in assay [9]; 36.6 µM (inactive) in assay [10]; 40.3 µM (inactive) in assay [11]; 30.3 µM (inactive) in assay [12]. For the same compound, the GI50 in [13] was > 100 µM (inactive); in assay [14] it was 27.9 µM (inactive); in assay [15], > 100 µM (inactive); in assay [16] it was 47.1 µM (inactive); in assay [17], 51.4 µM (inactive); in [18] it was > 100 µM (inactive). In addition, the GI50 in assay [19] is 40 µM (inactive).

For the compound `CCOC(=O)c1ccc(/N=C/C=C(\Nc2ccc(C(=O)OCC)cc2)C23CC4CC(CC(C4)C2)C3)cc1`, the GI50 is > 100 µM (inactive) in assay [1]; 43.9 µM (inactive) in [2]; 91.2 µM (inactive) in [3]; 45 µM (inactive) in assay [4]; > 100 µM (inactive) in assay [5]; > 100 µM (inactive) in [6]. Also, the GI50 was 35.9 µM (inactive) in assay [7]; 50.6 µM (inactive) in [8]; 56.5 µM (inactive) in [9]; > 100 µM (inactive) in [10]; 89.7 µM (inactive) in [11]; 51.1 µM (inactive) in assay [12]. Moreover, the GI50 in assay [13] is 35.8 µM (inactive); in assay [14] it was 28.2 µM (inactive); in assay [15], 35.8 µM (inactive); in assay [16], 54 µM (inactive); in [17] it was 65.6 µM (inactive); in assay [18], > 100 µM (inactive). Also, the GI50 in [19] is 42.2 µM (inactive).

`O=C1CCC2C(O)c3cc4c(cc3C(c3ccc5c(c3)OCO5)N12)OCO4` (stereo not given): the GI50 in [1] was 47.6 µM (inactive); in [2], > 100 µM (inactive); in [3], > 100 µM (inactive); in assay [4] it was > 100 µM (inactive); in assay [5], 67.9 µM (inactive); in assay [6] it was > 100 µM (inactive). In addition, the GI50 in assay [7], in [8], in [9], in assay [10], in [11] and in assay [12] was > 100 µM (inactive) throughout. The GI50 in assay [13] was > 100 µM (inactive); in [14], 80 µM (inactive); in [15], > 100 µM (inactive); in assay [16], > 100 µM (inactive); in assay [17] it was 16.3 µM (inactive); in assay [18] it was > 100 µM (inactive). Besides, in assay [19], the GI50 was > 100 µM (inactive).

In the case of `Cc1cccc2c1CC(C1OC(=O)c3c(C)cccc31)C2=O` (stereo not given), the GI50 in [1], in assay [2], in assay [3], in [4], in assay [5] and in assay [6] was > 100 µM (inactive) each time. Also, the GI50 in assay [7], in assay [8], in assay [9], in [10], in assay [11] and in [12] was > 100 µM (inactive) each time. The GI50 in [13], in assay [14], in [15], in [16], in assay [17] and in assay [18] was > 100 µM (inactive) throughout. Besides, the GI50 in assay [19] was > 100 µM (inactive).

Consider `c1ccc(CSc2nc(N3CCOCC3)c3cn[nH]c3n2)cc1`, for which the GI50 was 11.7 µM (inactive) in assay [1]; 23.1 µM (inactive) in assay [2]; 23.6 µM (inactive) in assay [3]; 12.6 µM (inactive) in assay [4]; 17 µM (inactive) in assay [5]; 16.6 µM (inactive) in [6]. The GI50 was 15 µM (inactive) in [7]; 22.8 µM (inactive) in [8]; 30.5 µM (inactive) in assay [9]; 17 µM (inactive) in [10]; 17.5 µM (inactive) in assay [11]; 13.4 µM (inactive) in assay [12]. Moreover, the GI50 in [13] was 22.3 µM (inactive); in assay [14] it was 21 µM (inactive); in assay [15], 23.6 µM (inactive); in [16], 49.2 µM (inactive); in [17], 30.4 µM (inactive); in assay [18] it was 9.18 µM (inactive). Besides, the GI50 in assay [19] was 17.8 µM (inactive).

Regarding `CN(C)c1ccc(C2SCC(=O)N2c2ccc(Oc3ccc(Cl)cc3)c(Cl)c2)cc1` (stereo not given), the GI50 in [1] was 17 µM (inactive); in assay [2], 37.2 µM (inactive); in [3], 22.3 µM (inactive); in [4] it was 20.6 µM (inactive); in [5], 30.4 µM (inactive); in assay [6], 20.4 µM (inactive). Also, the GI50 was 36.6 µM (inactive) in [7]; 22.7 µM (inactive) in [8]; 16.7 µM (inactive) in [9]; 20.4 µM (inactive) in assay [10]; 22.7 µM (inactive) in assay [11]; 19.9 µM (inactive) in [12]. The GI50 in assay [13] is 26.4 µM (inactive); in assay [14], 18.1 µM (inactive); in assay [15], 28.8 µM (inactive); in [16], 18.5 µM (inactive); in assay [17] it was 17.6 µM (inactive); in assay [18], 32.4 µM (inactive). Further, in assay [19], the GI50 is 22.5 µM (inactive).

In the case of `CCOC(=O)c1nc2cc(F)c(N3CCOCC3)cc2[nH]c1=O`, the GI50 in assay [1] was > 100 µM (inactive); in assay [2], > 100 µM (inactive); in assay [3] it was > 100 µM (inactive); in [4], > 100 µM (inactive); in assay [5], 90.8 µM (inactive); in assay [6] it was > 100 µM (inactive). Also, the GI50 in assay [7], in [8], in assay [9], in assay [10], in assay [11] and in [12] was > 100 µM (inactive) throughout. Besides, the GI50 in assay [13], in assay [14], in assay [15], in assay [16], in assay [17] and in [18] was > 100 µM (inactive) each time. Besides, the GI50 in assay [19] is > 100 µM (inactive).

On to `COC(=O)C1=C(OC)[C@H]2C#C/C=C\C#C[C@@H]3Nc4c(cc(O)c5c4C(=O)c4ccccc4C5=O)[C@]24O[C@@]34[C@H]1C`, for which the GI50 in assay [1] was < 0.01 µM (active); in assay [2], < 0.01 µM (active); in assay [3], < 0.01 µM (active); in assay [4], < 0.01 µM (active); in assay [5] it was < 0.01 µM (active); in [6] it was 0.0585 µM (active). Moreover, the GI50 in assay [7] is < 0.01 µM (active); in assay [8], < 0.01 µM (active); in assay [9] it was 0.0555 µM (active); in assay [10] it was < 0.01 µM (active); in assay [11], < 0.01 µM (active); in [12], < 0.01 µM (active). The GI50 in assay [13], in [14], in [15], in assay [16], in assay [17] and in [18] was < 0.01 µM (active) in each case. Further, the GI50 in [19] is < 0.01 µM (active).

On to `CS(=O)(=O)OCCN(CCOS(C)(=O)=O)c1ccc(/C=N/c2cccc(Cl)c2)cc1`, for which the GI50 in assay [1] is 9.98 µM (inactive); in assay [2], 10 µM (inactive); in assay [3] it was 2.7 µM (inactive); in assay [4], 0.811 µM (active); in assay [5], 2.06 µM (inactive); in assay [6], 23.8 µM (inactive). The GI50 in [7] was 2.84 µM (inactive); in [8], 2.64 µM (inactive); in assay [9] it was 64.9 µM (inactive); in assay [10] it was 11.5 µM (inactive); in [11], 12.2 µM (inactive); in assay [12] it was 24.5 µM (inactive). For the same compound, the GI50 in assay [13] was 2.95 µM (inactive); in assay [14] it was 3.68 µM (inactive); in [15], 14.5 µM (inactive); in assay [16] it was 1.66 µM (inactive); in [17], 2.11 µM (inactive); in [18], 0.239 µM (active). In assay [19], the GI50 was 0.269 µM (active).
